Patent US7718809B2, “Chromane substituted benzimidazole derivatives as acid pump antagonists” (RaQualia Pharma Inc., priority 2005, dated 2010)

System: gastric acid secretion
Experiment: Inhibition of gastric acid secretion in the Heidenhain pouch dog
Assay type: in vivo, Beagle dogs
Details: histamine-stimulated (80 μg/kg/h) acid secretion, oral or intravenous bolus administration
Procedure: Male Beagle dogs weighing 7-15 kg with Heidenhain pouch [Heidenhain R: Arch Ges Physiol. 1879; 19: 148-167] were used. The animals were allowed to recover from surgery for at least three weeks before the experiments. The animals were kept at a 12 hour light-dark rhythm, housed singly. They received standard food once daily at 11:00 a.m. and tap water ad libitum, and were fasted overnight prior to the experiment, with free access to water. Gastric juice samples were collected throughout the experiment by gravity drainage every 15 min. Acidity in the gastric juice was measured by titration to the end point of pH 7.0. Acid secretion was stimulated by a continuous intravenous infusion of histamine (80 μg/kg/h). Oral or intravenous bolus administration of the test compounds was done 90 minutes after commencement of the histamine infusion. The acid secretion was monitored after the administration. The activity was evaluated by the maximum inhibition relative to the corresponding control value.

Cc1nc2c(OC3CCOc4cc(F)cc(F)c43)cc(C(=O)N(C)C)cc2n1C (single isomer, unassigned; (-)) [Example 6, (−)-4-[(5,7-Difluoro-3,4-dihydro-2H-chromen-4-yl)oxy]-N,N,1,2-tetramethyl-1H-benzimidazole-6-carboxamide] was tested, and the “inhibitory activity (maximum inhibition of acid secretion relative to control)” value was “good inhibitory activity”.

Target: T1, porcine gastric H+/K+-ATPase (Sus scrofa, UniProt P19156)
T1 construct: prepared from mucous membrane in fresh porcine stomachs by homogenization; from tissue; host or cells: mucous membrane of fresh porcine stomachs (gastric vesicles)
T1 sequence (P19156 2-1034 limits assumed): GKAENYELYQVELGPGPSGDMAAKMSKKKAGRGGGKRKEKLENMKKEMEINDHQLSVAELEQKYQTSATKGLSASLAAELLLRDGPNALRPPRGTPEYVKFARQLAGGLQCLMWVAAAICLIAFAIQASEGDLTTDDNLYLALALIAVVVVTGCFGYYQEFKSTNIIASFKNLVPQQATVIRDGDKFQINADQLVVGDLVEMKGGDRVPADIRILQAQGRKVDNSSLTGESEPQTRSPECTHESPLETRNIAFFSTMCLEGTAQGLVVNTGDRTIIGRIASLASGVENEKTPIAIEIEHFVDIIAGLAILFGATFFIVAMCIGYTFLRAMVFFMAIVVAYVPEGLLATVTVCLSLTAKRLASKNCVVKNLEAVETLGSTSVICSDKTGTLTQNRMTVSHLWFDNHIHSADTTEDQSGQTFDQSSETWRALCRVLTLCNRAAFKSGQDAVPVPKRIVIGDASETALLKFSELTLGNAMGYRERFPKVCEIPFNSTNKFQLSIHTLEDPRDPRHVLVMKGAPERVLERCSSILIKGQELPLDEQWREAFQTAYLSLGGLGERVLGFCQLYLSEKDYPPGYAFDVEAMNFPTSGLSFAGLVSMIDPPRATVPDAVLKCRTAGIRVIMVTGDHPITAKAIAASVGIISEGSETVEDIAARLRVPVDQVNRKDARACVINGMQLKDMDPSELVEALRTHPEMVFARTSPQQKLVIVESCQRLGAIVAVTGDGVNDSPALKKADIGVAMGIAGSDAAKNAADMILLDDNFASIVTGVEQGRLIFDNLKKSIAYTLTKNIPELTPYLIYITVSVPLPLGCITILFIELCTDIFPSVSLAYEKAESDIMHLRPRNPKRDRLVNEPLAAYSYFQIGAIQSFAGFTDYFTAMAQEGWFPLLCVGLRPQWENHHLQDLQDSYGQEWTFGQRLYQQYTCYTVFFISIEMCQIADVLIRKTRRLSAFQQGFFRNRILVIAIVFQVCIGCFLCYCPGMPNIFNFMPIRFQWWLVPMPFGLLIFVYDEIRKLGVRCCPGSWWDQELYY
T1 sequence (P18434 whole entry partner): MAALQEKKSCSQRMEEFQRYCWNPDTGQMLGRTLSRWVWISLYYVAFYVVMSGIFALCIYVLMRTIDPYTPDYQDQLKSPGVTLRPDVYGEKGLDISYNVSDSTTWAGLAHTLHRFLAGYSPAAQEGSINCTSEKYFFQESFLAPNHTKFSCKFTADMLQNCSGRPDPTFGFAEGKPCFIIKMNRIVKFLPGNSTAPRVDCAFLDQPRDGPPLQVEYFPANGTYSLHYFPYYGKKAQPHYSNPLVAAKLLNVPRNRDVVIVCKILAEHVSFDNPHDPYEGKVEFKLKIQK
Experiment: Ion-tight porcine gastric H+/K+-ATPase inhibition
Assay type: biochemical
Details: ion-tight gastric vesicles, 150 mM KCl, valinomycin, pH 7.4, 37° C.
Procedure: The porcine gastric vesicles for Porcine gastric H^+/K^+-ATPase inhibition assays were prepared from mucous membrane in fresh porcine stomachs by homogenization with a tight-fitted polytetrafluoroethylene (Teflone®) homogenizer in 0.25 M sucrose at 4° C. The crude pellet was removed with centrifugation at 20,000 g for 30 min. Then supernatant was centrifuged at 100,000 g for 30 min. The resulting pellet was re-suspended in 0.25 M sucrose, and then subjected to density gradient centrifugation at 132,000 g for 90 min. The gastric vesicles were collected from interface on 0.25 M sucrose layer containing 7% Ficoll™ PM400(Amersham Biosciences). This procedure was performed in a cold room.
Ion-tight porcine gastric H^+/K^+-ATPase inhibition was measured according to the modified method described in Biochemical Pharmacology, 1988, 37, 2231-2236.
The isolated vesicles were kept in deep-freezer until use. For enzyme assay, vesicles were diluted with 3 mM MgSO4 containing 5 mM Tris (pH 7.4 at 37° C).
Enzyme reaction was performed incubating 150 mM KCl, 3 mM Na2ATP, 3 mM MgSO4, 15 μM valinomycin and 3.0 μg of vesicles for 30 minutes at 37° C. in a final 60 μl of reaction mixture (5 mM Tris, pH 7.4) with or without the test compound. Enzyme reaction was stopped by adding 10% SDS. Released inorganic phosphate from ATP was detected by incubating with mixture of 1 part of 35 mM ammonium molybdate tetrahydrate in 15 mM Zinc acetate hydrate and 4 parts of 10% ascorbic acid (pH 5.0), resulting in phosphomolybdate, which has optical density at 750 nm.

In order of rising IC50:
1. Cc1nc2c(OC3CCOc4cc(F)ccc43)cc(C(=O)N(C)C)cc2n1C (racemic) [Example 2, 4-[(7-Fluoro-3,4-dihydro-2H-chromen-4-yl)oxy]-N,N,1,2-tetramethyl-1H-benzimidazole-6-carboxamide]  69 nM
2. Cc1nc2c(OC3CCOc4cc(F)cc(F)c43)cc(C(=O)N(C)C)cc2n1C (racemic) [Example 5, 4-[(5,7-Difluoro-3,4-dihydro-2H-chromen-4-yl)oxy]-N,N,1,2-tetramethyl-1H-benzimidazole-6-carboxamide]  90 nM
3. Cc1nc2c(OC3CCOc4ccccc43)cc(C(=O)N3CC[C@@H](O)C3)cc2n1C (stereo partly drawn) [Example 13, (3R)-1-{[4-(3,4-Dihydro-2H-chromen-4-yloxy)-1,2-dimethyl-1H-benzimidazol-6-yl]carbonyl}pyrrolidin-3-ol]  120 nM
4. CC(=O)N1CCN(C(=O)c2cc(OC3CCOc4ccccc43)c3nc(C)n(C)c3c2)CC1 (stereo not drawn) [Example 16, 6-[(4-Acetylpiperazin-1-yl)carbonyl]-4-(3,4-dihydro-2H-chromen-4-yloxy)-1,2-dimethyl-1H-benzimidazole]  140 nM
5. Cc1cccc2c1C(Oc1cc(C(=O)N(C)C)cc3c1nc(C)n3C)CCO2 (stereo not drawn) [Example 8, N,N,1,2-Tetramethyl-4-[(5-methyl-3,4-dihydro-2H-chromen-4-yl)oxy]-1H-benzimidazole-6-carboxamide]  180 nM
6. Cc1nc2c(OC3CCOc4cc(F)cc(F)c43)cc(C(=O)N3CCC3)cc2n1C (racemic) [Example 22, 6-(Azetidin-1-ylcarbonyl)-4-[(5,7-difluoro-3,4-dihydro-2H-chromen-4-yl)oxy]-1,2-dimethyl-1H-benzimidazole]  180 nM
7. Cc1nc2c(OC3CCOc4cc(F)cc(F)c43)cc(C(=O)N(C)C)cc2n1C (single isomer, unassigned; (-)) [Example 6, (−)-4-[(5,7-Difluoro-3,4-dihydro-2H-chromen-4-yl)oxy]-N,N,1,2-tetramethyl-1H-benzimidazole-6-carboxamide]  210 nM
8. Cc1nc2c(OC3CCOc4cc(F)cc(F)c43)cc(C(=O)N(C)C)cc2n1C (single isomer, unassigned; (+)) [Example 7, (+)-4-[(5,7-Difluoro-3,4-dihydro-2H-chromen-4-yl)oxy]-N,N,1,2-tetramethyl-1H-benzimidazole-6-carboxamide]  220 nM
9. Cc1nc2c(OC3CCOc4cccc(F)c43)cc(C(=O)N(C)C)cc2n1C (single isomer, unassigned; (+)) [Example 18, (+)-4-{[5-Fluoro-3,4-dihydro-2H-chromen-4-yl]oxy}-N,N,1,2-tetramethyl-1H-benzimidazole-6-carboxamide]  240 nM
10. Cc1nc2c(OC3COCc4ccccc43)cc(C(=O)N(C)C)cc2n1C (stereo not drawn) [Example 10, 4-(3,4-Dihydro-1H-isochromen-4-yloxy)-N,N,1,2-tetramethvl-1H-benzimidazole-6-carboxamide]  320 nM
11. Cc1nc2c(OC3CCOc4cccc(F)c43)cc(C(=O)N(C)C)cc2n1C (single isomer, unassigned; (-)) [Example 17, (−)-4-{[5-Fluoro-3,4-dihydro-2H-chromen-4-yl]oxy}-N,N,1,2-tetramethyl-1H-benzimidazole-6-carboxamide]  340 nM
12. Cc1nc2c(OC3CCOc4ccccc43)cc(C(=O)N(C)CCO)cc2n1C (stereo not drawn) [Example 11, 4-(3,4-Dihydro-2H-chromen-4-yloxy)-N-(2-hydroxyethyl)-N,1,2-trimethyl-1H-benzimidazole-6-carboxamide]  430 nM
13. Cc1nc2c(OC3CCOc4cc(F)ccc43)cc(C(=O)N(C)C)cc2n1C (single isomer, unassigned; (+)) [Example 4, (+)-4-[(7-Fluoro-3,4-dihydro-2H-chromen-4-yl)oxy]-N,N,1,2-tetramethyl-1H-benzimidazole-6-carboxamide]  440 nM
14. Cc1nc2c(OC3CCOc4cc(F)ccc43)cc(C(=O)N(C)C)cc2n1C (single isomer, unassigned; (-)) [Example 3, (−)-4-[(7-Fluoro-3,4-dihydro-2H-chromen-4-yl)oxy]-N,N,1,2-tetramethvl-1H-benzimidazole-6-carboxamide]  440 nM
15. Cc1nc2c(OC3CCOc4cc(F)cc(F)c43)cc(C(=O)N3CCC3)cc2n1C (single isomer, unassigned; (-)) [Example 23, (−)-6-(Azetidin-1-ylcarbonyl)-4-[(5,7-difluoro-3,4-dihydro-2H-chromen-4-yl)oxy]-1,2-dimethyl-1H-benzimidazole]  440 nM
16. Cc1nc2c(OC3CCOc4cc(F)cc(F)c43)cc(C(=O)N3CC(C)(O)C3)cc2n1C (stereo not drawn) [Example 26, 1-({4-[(5,7-Difluoro-3,4-dihydro-2H-chromen-4-yl)oxy]-1,2-dimethyl-1H-benzimidazol-6-yl}carbonyl)-3-methylazetidin-3-ol]  480 nM
17. CNC(=O)c1cc(OC2CCOc3cc(F)cc(F)c32)c2nc(C)n(C)c2c1 (single isomer, unassigned; (+)) [Example 21, (+)-4-[(5,7-Difluoro-3,4-dihydro-2H-chromen-4-yl)oxy]-N,1,2-trimethyl-1H-benzimidazole-6-carboxamide]  490 nM
18. Cc1nc2c(OC3CCOc4ccccc43)cc(C(=O)N(C)C)cc2n1C (stereo not drawn) [Example 1, 4-(3,4-Dihydro-2H-chromen-4-yloxy)-N,N,1,2-tetramethyl-1H-benzimidazole-6-carboxamide]  560 nM
19. Cc1nc2c(OC3CCOc4cc(F)cc(F)c43)cc(C(=O)N3CCCC3)cc2n1C (stereo not drawn) [Example 25, 4-[(5,7-Difluoro-3,4-dihydro-2H-chromen-4-yl)oxy]-1,2-dimethyl-6-(pyrrolidin-1-ylcarbonyl)-1H-benzimidazole]  590 nM
20. CNC(=O)c1cc(OC2CCOc3cc(F)cc(F)c32)c2nc(C)n(C)c2c1 (single isomer, unassigned; (-)) [Example 20, (−)-4-[(5,7-Difluoro-3,4-dihydro-2H-chromen-4-yl)oxy]-N,1,2-trimethyl-1H-benzimidazole-6-carboxamide]  610 nM
21. Cc1nc2c(OC3CCOc4cc(F)cc(F)c43)cc(C(=O)N3CCC3)cc2n1C (single isomer, unassigned; (+)) [Example 24, (+)-6-(Azetidin-1-ylcarbonyl)-4-[(5,7-difluoro-3,4-dihydro-2H-chromen-4yl)oxy]-1,2-dimethyl-1H-benzimidazole]  620 nM
22. Cc1nc2c(OC3CCOc4ccccc43)cc(C(=O)N3CC[C@H](O)C3)cc2n1C (stereo partly drawn) [Example 12, (3S)-1-{[4-(3,4-Dihydro-2H-chromen-4-yloxy)-1,2-dimethyl-1H-benzimidazol-6-yl]carbonyl}pyrrolidin-3-ol]  670 nM
23. CNC(=O)c1cc(OC2CCOc3cc(F)cc(F)c32)c2nc(C)n(C)c2c1 (racemic) [Example 19, 4-[(5,7-Difluoro-3,4-dihydro-2H-chromen-4-yl)oxy]-N,1,2-trimethyl-1H-benzimidazole-6-carboxamide]  680 nM
24. Cc1nc2c(OC3CCOc4ccccc43)cc(C(=O)N3CCN(C)CC3)cc2n1C (stereo not drawn) [Example 15, 4-(3,4-Dihydro-2H-chromen-4-yloxy)-1,2-dimethyl-6-[(4-methylpiperazin-1-yl)carbonyl]-1H-benzimidazole]  950 nM
25. Cc1nc2c(OC3CCOc4cccc(F)c43)cc(C(=O)N(C)C)cc2n1C (racemic) [Example 9, 4-[(5-Fluoro-3,4-dihydro-2H-chromen-4-yl)oxy]-N,N,1,2-tetramethyl-1H-benzimidazole-6-carboxamide]  960 nM
26. Cc1nc2c(OC3CCOc4ccccc43)cc(C(=O)N3CCC[C@@H]3CO)cc2n1C (stereo partly drawn) [Example 14]  980 nM
